23 molecules from ChEMBL document CHEMBL4665632, “Design, synthesis and biological evaluation of pyridone-aminal derivatives as MNK1/2 inhibitors” (Bioorg Med Chem, 2019) can be followed below.

The target of experiment [1] is T1, MAP kinase-interacting serine/threonine-protein kinase 2 (Homo sapiens, UniProt Q9HBH9). In words: Inhibition of MNK2 (unknown origin) at 100 nM incubated for 60 mins by HTRF assay.
Target sequence in this assay (Q9HBH9 whole entry, looked up, the tested form may be a part): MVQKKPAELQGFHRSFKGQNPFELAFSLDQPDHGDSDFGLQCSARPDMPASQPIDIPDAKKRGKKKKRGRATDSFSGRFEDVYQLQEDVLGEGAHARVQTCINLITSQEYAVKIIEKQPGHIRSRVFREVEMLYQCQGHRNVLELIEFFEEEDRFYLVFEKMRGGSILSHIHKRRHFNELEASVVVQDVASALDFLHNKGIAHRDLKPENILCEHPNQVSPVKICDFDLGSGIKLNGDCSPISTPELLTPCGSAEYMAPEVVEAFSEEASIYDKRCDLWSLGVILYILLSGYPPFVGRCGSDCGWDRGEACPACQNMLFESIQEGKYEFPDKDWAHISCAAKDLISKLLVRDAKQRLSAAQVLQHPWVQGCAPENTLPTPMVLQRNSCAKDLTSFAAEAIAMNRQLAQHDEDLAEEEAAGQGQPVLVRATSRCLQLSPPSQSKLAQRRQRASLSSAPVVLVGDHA
The target in experiment [2] is T2, MAP kinase-interacting serine/threonine-protein kinase 1 (Homo sapiens, UniProt Q9BUB5). The experiment in a line: Inhibition of recombinant human N-terminal DYKDDDDK-tagged MNK1(1 to 424 residues) expressed in baculovirus expression system using TATKSGSTTKNR as substrate preincubated for 10 mins followed by ATP addition and measured after 40 mins by luminescence based assay.
Target sequence in this assay (Q9BUB5 whole entry, the tested form may be a part): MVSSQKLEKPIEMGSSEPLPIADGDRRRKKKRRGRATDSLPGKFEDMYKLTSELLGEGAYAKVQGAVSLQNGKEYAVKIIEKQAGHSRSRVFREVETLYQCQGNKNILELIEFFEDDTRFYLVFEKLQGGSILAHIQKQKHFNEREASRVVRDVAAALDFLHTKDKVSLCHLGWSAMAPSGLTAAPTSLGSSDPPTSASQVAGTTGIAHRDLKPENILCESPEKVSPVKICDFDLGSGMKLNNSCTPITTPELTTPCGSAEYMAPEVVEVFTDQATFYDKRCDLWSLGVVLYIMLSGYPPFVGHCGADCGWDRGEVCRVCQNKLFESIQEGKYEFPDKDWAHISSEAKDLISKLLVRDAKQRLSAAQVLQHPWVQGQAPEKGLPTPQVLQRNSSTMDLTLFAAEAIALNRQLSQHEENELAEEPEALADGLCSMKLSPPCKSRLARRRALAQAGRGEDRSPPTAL

For experiment [3], the target named is T2, MAP kinase-interacting serine/threonine-protein kinase 1. In words: Inhibition of MNK1 (unknown origin) at 100 nM incubated for 60 mins by HTRF assay.
Target sequence in this assay (Q9BUB5 whole entry, looked up, the tested form may be a part): as the sequence (Q9BUB5 whole entry, the tested form may be a part) above
In experiment [4] the target is T1, MAP kinase-interacting serine/threonine-protein kinase 2. The experiment in a line: Inhibition of recombinant human N-terminal GST-tagged MNK2 (1 to 465 residues) expressed in baculovirus expression system using TATKSGSTTKNR as substrate preincubated for 10 mins followed by ATP addition and measured after 40 mins by luminescence based assay.
Target sequence in this assay (Q9HBH9 whole entry, the tested form may be a part): as the sequence (Q9HBH9 whole entry, looked up, the tested form may be a part) above
Experiment [5] can be described thus: Antiproliferative activity against […] cells assessed as reduction in cell viability at 20 uM incubated for 72 hrs by MTT assay relative to control. The experiment is classed as functional, Mus musculus. In general terms: Formazan colour is commonly taken as a measure of viable cells.
Another experiment relates to HCT-116. In words: Antiproliferative activity against human HCT-116 cells assessed as reduction in cell viability at 20 uM incubated for 72 hrs by MTT assay relative to control. The class given is functional.
In the next experiment the test system is MV4-11. The experiment in a line: Antiproliferative activity against human MV4-11 cells assessed as reduction in cell viability incubated for 72 hrs by MTT assay. The experiment is classed as functional, cell-based. To be noted: MV4-11, 72 h.
Another experiment has as its system TMD8. In words: Antiproliferative activity against human TMD8 cells assessed as reduction in cell viability incubated for 72 hrs by MTT assay. The class given is functional, cell-based. Particulars: TMD8, 72 h.
In another experiment the test system is A549. The experiment in a line: Antiproliferative activity against human A549 cells assessed as reduction in cell viability incubated at 20 uM for 72 hrs by MTT assay relative to control. The class given is functional.
In a further experiment the test system is K562. The experiment in a line: Antiproliferative activity against human K562 cells assessed as reduction in cell viability incubated for 72 hrs by MTT assay. The experiment is classed as functional, cell-based. Particulars: K562, 72 h.
Another experiment has as its system MDA-MB-435. In words: Antiproliferative activity against human MDA-MB-435 cells assessed as reduction in cell viability at 20 uM incubated for 72 hrs by MTT assay relative to control. The experiment is classed as functional.

The inhibition is the share of the control response that was lost under treatment. By IC50 is commonly meant the point on the concentration scale where inhibition reaches its midpoint.

For the molecule `Cc1cc(Nc2cccnn2)c(=O)n2c1C(=O)NC21CCCCC1`, the inhibition in [1] came to 23.9%; in experiment [3] it was 25.9%. Moreover, the IC50 in [2] and in [4] was over 500 nM throughout.

For the molecule `Cc1cc(Nc2nccc(N)n2)c(=O)n2c1C(=O)NC21CCCCC1`, the inhibition in experiment [1] is 30.2%; in experiment [3] it was 33.2%. Besides, the IC50 in experiment [2] and in experiment [4] was over 500 nM throughout.

Consider `CC(=O)N1CCN(c2cc(Nc3cc(C)c4n(c3=O)C3(CCCCC3)NC4=O)ncn2)CC1`, for which the inhibition at 20 µM was found to be 46.7% in experiment [5], 28.9% with HCT-116, 28.8% with A549 and 16% in the experiment with MDA-MB-435. Further, the inhibition in experiment [1] was determined as 86.9%; in experiment [3], 73.3%. Also, the IC50 in the experiment on MV4-11 is over 20 µM; in the experiment on TMD8 it was 8.33 µM; in experiment [2], 68.9 nM; in the experiment on K562, over 20 µM; in experiment [4] it was 63.8 nM.

Turning to `Cc1cc(Nc2cn(C)nc2N)c(=O)n2c1C(=O)NC21CCCCC1`, the inhibition in experiment [1] turned out to be 55.4%; in [3] it was 53.2%. In addition, the IC50 is 479 nM in [2] and 389 nM in experiment [4].

Turning to `Cc1cc(Nc2ncccn2)c(=O)n2c1C(=O)NC21CCCCC1`, the inhibition was determined as 18.9% in experiment [1] and 22.4% in experiment [3]. The IC50 in [2] and in [4] was over 500 nM throughout.

`Cc1cc(Nc2cc(N3CCN(C)CC3)ncn2)c(=O)n2c1C(=O)NC21CCCCC1`: the inhibition at 20 µM in [5] was found to be 38.8%; in the experiment with HCT-116, 65.2%; in the experiment with A549, 39%; in the experiment with MDA-MB-435, 44.3%. For the same molecule, the inhibition in experiment [1] came out at 66.8%; in experiment [3], 54.4%. The IC50 was over 20 µM with MV4-11; 4.81 µM in the experiment with TMD8; 51.2 nM in experiment [2]; 17.9 µM in the experiment on K562; 42.1 nM in experiment [4].

Take `Cc1cc(Nc2cn(C)nc2C(F)F)c(=O)n2c1C(=O)NC21CCCCC1`: the inhibition was found to be 14.6% in experiment [1] and 25.4% in experiment [3]. Also, the IC50 in experiment [2] and in experiment [4] was over 500 nM each time.

Consider `Cc1cc(Nc2cc(NC3CCNCC3)ncn2)c(=O)n2c1C(=O)NC21CCCCC1`, for which the inhibition at 20 µM in experiment [5] is 18.5%; in the experiment on HCT-116 it was 35.2%; with A549 it was 43.9%; with MDA-MB-435 it was 59.2%. Besides, the inhibition is 75.8% in [1] and 66.4% in experiment [3]. In addition, the IC50 in the experiment with MV4-11 is 18.5 µM; with TMD8, 11 µM; in experiment [2] it was 55.2 nM; with K562, over 20 µM; in [4], 49.8 nM.

For `Cc1cc(Nc2cc(N3CCC(N)CC3)ncn2)c(=O)n2c1C(=O)NC21CCCCC1`, the inhibition at 20 µM came to 36.5% in [5], 46.8% in the experiment on HCT-116, 50.1% with A549 and 42% in the experiment with MDA-MB-435. The results for the inhibition in experiment [1] and in experiment [3] were 64.3% and 62.7%, respectively. The IC50 in the experiment with MV4-11 is over 20 µM; in the experiment with TMD8, 9.96 µM; in [2], 125 nM; with K562, 17.7 µM; in experiment [4], 82 nM.

On to `Cc1cc(Nc2ccnc(N)n2)c(=O)n2c1C(=O)NC21CCCCC1`, for which the inhibition at 20 µM in experiment [5] was 35%; in the experiment with HCT-116, 30.7%; in the experiment with A549, 22.6%; with MDA-MB-435 it was 25.8%. The inhibition in [1] turned out to be 66.3%; in experiment [3] it was 52.7%. For the same molecule, the IC50 in the experiment with MV4-11 is over 20 µM; with TMD8 it was over 20 µM; in [2], 390 nM; in the experiment on K562, over 20 µM; in [4], 228 nM.

In the case of `Cc1cccnc1Nc1cc(C)c2n(c1=O)C1(CCCCC1)NC2=O`, the inhibition in [1] was 23%; in experiment [3], 17.8%. Moreover, the IC50 in [2] and in experiment [4] was over 500 nM throughout.

Turning to `Cc1cc(Nc2cc(N3CCOCC3)ncn2)c(=O)n2c1C(=O)NC21CCCCC1`, the inhibition stood at 35.5% in [1] and 21.4% in [3]. The IC50 in experiment [2] was over 500 nM; in [4], 454 nM.

Turning to `Cc1cc(Nc2cccnc2)c(=O)n2c1C(=O)NC21CCCCC1`, the values for the inhibition in experiment [1] and in [3] were 13.3% and 20.2%, respectively. Moreover, the IC50 in experiment [2] and in experiment [4] was over 500 nM each time.

In the case of `Cc1cc(Nc2cncc(N)n2)c(=O)n2c1C(=O)NC21CCCCC1`, the inhibition is 33.2% in [1] and 25.3% in [3]. The IC50 in experiment [2] and in experiment [4] was over 500 nM each time.

With `Cc1cccc(Nc2cc(C)c3n(c2=O)C2(CCCCC2)NC3=O)n1`, the inhibition in experiment [1] came out at 13.4%; in experiment [3], 19.8%. Further, the IC50 in [2] and in experiment [4] was over 500 nM each time.

Turning to `Cc1cc(Nc2ccncn2)c(=O)n2c1C(=O)NC21CCCCC1`, the inhibition at 20 µM in experiment [5] worked out at 48.3%; in the experiment on HCT-116, 40.1%; with A549, 40.5%; with MDA-MB-435, 52.4%. Besides, the inhibition was determined as 97.3% in experiment [1] and 82.2% in [3]. Further, the IC50 in the experiment with MV4-11 is over 20 µM; in the experiment on TMD8 it was 6.22 µM; in experiment [2], 10.5 nM; in the experiment with K562, 14.2 µM; in [4] it was 8.3 nM.

In the case of `Cc1cc(Nc2ccccn2)c(=O)n2c1C(=O)NC21CCCCC1`, the values for the inhibition in experiment [1] and in experiment [3] were 16.2% and 19.5%, respectively. Moreover, the IC50 in experiment [2] and in [4] was over 500 nM throughout.

Turning to `Cc1cc(Nc2cc(C)c3n(c2=O)C2(CCCCC2)NC3=O)ccn1`, the inhibition is 45.2% in experiment [1] and 26.8% in [3]. Also, the IC50 turned out to be 422 nM in experiment [2] and 398 nM in [4].

`Cc1cc(Nc2cnccn2)c(=O)n2c1C(=O)NC21CCCCC1`: the inhibition in [1] came out at 36.8%; in experiment [3], 47.6%. Further, the IC50 in experiment [2] was 466 nM; in experiment [4], over 500 nM.

On to `Cc1cc(Nc2ccncc2)c(=O)n2c1C(=O)NC21CCCCC1`, for which the inhibition at 20 µM in experiment [5] was determined as 24%; in the experiment on HCT-116, 12.9%; with A549 it was 23.1%; in the experiment with MDA-MB-435, 48.6%. Moreover, the inhibition in experiment [1] amounted to 88.3%; in experiment [3], 60.7%. The IC50 in the experiment on MV4-11 is over 20 µM; in the experiment with TMD8, over 20 µM; in [2] it was 240 nM; with K562 it was over 20 µM; in [4] it was 138 nM.

Take `Cc1cc(Nc2cc(N3CCCCC3)ncn2)c(=O)n2c1C(=O)NC21CCCCC1`: the values for the inhibition in experiment [1] and in [3] were 50.3% and 37.5%, respectively. In addition, the IC50 in [2] came to 476 nM; in experiment [4], 452 nM.

As for `Cc1cc(Nc2cn(C)nc2C#N)c(=O)n2c1C(=O)NC21CCCCC1`, the values for the inhibition in [1] and in experiment [3] were 11.9% and 10.5%, respectively. Moreover, the IC50 in experiment [2] and in experiment [4] was over 500 nM throughout.

On to `Cc1cc(Nc2cc(N)ccn2)c(=O)n2c1C(=O)NC21CCCCC1`, for which the values for the inhibition in [1] and in [3] were 30.8% and 43.4%, respectively. The IC50 in experiment [2] and in [4] was over 500 nM in each case.
